In US9096832B2, “Differentiation of human embryonic stem cells” (LifeScan, Inc., priority 2007, dated 2015):

System: H9 embryonic stem cells
Test: Microarray analysis of definitive endoderm stage cells on […] or MEFs +/- Wnt-3a (Table VI)
Type: cell-based, human
Conditions: for mean normalized intensity: ESTs: DE treatment in low serum on MEFS, log format
Description: Controls for each group included cells plated on [sequence]—coated dishes and cultured in MEF-conditioned medium or cells plated on MEFs and cultured in ES medium. All groups contained three biological replicates and each biological replicate was repeated on two separate gene chips.
Sample preparation, hybridization, and image analysis were performed according to the Affymetrix Human Genome U133 Plus 2.0 Array. Following normalization and a log transformation, data analysis was performed using OmniViz® software (MA) and [sequence] […] Significant differences in gene expression between the samples were evaluated using analysis of variance and an F-test with adjusted P-value (Benjamini and Hochberg correction) of less-than or equal to 0.05. Only genes with a present call in at least one group were included in the analysis.

Activin A: activin A (a member of the TGFβ superfamily), R&D Systems; 'w/o wnt' in Table VII = 100 ng/ml Activin A without Wnt3a
mean normalized intensity: ESTs (gene line r2134): −0.9461 | mean normalized intensity: ESTs (gene line r2148): 5.334 | Intensity (log): 6-phosphofructo-2-kinasefructose-2,6-biphosphatase 4 (low serum, on MATRIGEL): −0.2429 | Intensity (log): ESTs, Highly similar to IHH_HUMAN INDIAN HEDGEHOG PROTEIN PRECURSOR (H. sapiens) (low serum, on MATRIGEL): −0.654 | Intensity (log): ESTs, Moderately similar to JE0284 Mm-1 cell derived transplantability-associated protein 1b (H. sapiens) (low serum, on MATRIGEL): −2.377 | Intensity (log): ESTs, Weakly similar to FCE2 MOUSE LOW AFFINITY IMMUNOGLOBULIN EPSILON FC RECEPTOR (M. musculus) (low serum, on MATRIGEL): 0.4942 | Intensity (log): ESTs, Weakly similar to the 331st table hypothetical protein KIAA0555 (H. sapiens) (low serum, on MATRIGEL): −1.574 | Intensity (log): G protein-coupled receptor (low serum, on MATRIGEL): 1.507 | Intensity (log): G protein-coupled receptor 49 (low serum, on MATRIGEL): 0.2655 | Intensity (log): Homo sapiens Kell blood group (KEL), mRNA (low serum, on MATRIGEL): −2.205 | Intensity (log): Homo sapiens MLL septin-like fusion (MSF), mRNA (low serum, on MATRIGEL): −3.292 | Intensity (log): Homo sapiens Mix-like homeobox protein 1 (MILD1) mRNA, complete cds (low serum, on MATRIGEL): −1.546 | Intensity (log): Homo sapiens Rho GTPase activating protein 6 (ARHGAP6), transcript variant 2, mRNA (low serum, on MATRIGEL): −1.104 | Intensity (log): Homo sapiens TBX3-iso protein (TBX3-iso), mRNA (low serum, on MATRIGEL): −2.346 | Intensity (log): Homo sapiens angiopoietin 2 (ANGPT2), mRNA (low serum, on MATRIGEL): −2.93 | Intensity (log): Homo sapiens ankyrin-like with transmembrane domains 1 (ANKTM1), mRNA (low serum, on MATRIGEL): −1.109 | Intensity (log): Homo sapiens apolipoprotein A-I (APOA1), mRNA (low serum, on MATRIGEL): −1.471 | Intensity (log): Homo sapiens apolipoprotein A-II (APOA2), mRNA (low serum, on MATRIGEL): −1.033 | Intensity (log): Homo sapiens arylsulfatase E (chondrodysplasia punctata 1) (ARSE), mRNA (low serum, on MATRIGEL): 0.283 | Intensity (log): Homo sapiens atrophin-1 interacting protein 1; activin receptor interacting protein 1 (KIAA0705), mRNA (low serum, on MATRIGEL): −4.308 | Intensity (log): Homo sapiens beta-site APP cleaving enzyme (BACE) mRNA, complete cds (low serum, on MATRIGEL): −2.0354 | Intensity (log): Homo sapiens cDNA FLJ11550 fis, clone HEMBA1002970 (low serum, on MATRIGEL): −1.222 | Intensity (log): Homo sapiens cDNA FLJ12993 fis, clone NT2RP3000197 (low serum, on MATRIGEL): 0.1473 | Intensity (log): Homo sapiens cDNA FLJ13221 fis, clone NT2RP4002075 (low serum, on MATRIGEL): 0.3557 | Intensity (log): Homo sapiens cardiac ventricular troponin C mRNA, complete cds (low serum, on MATRIGEL): −0.5497 | Intensity (log): Homo sapiens cartilage linking protein 1 (CRTL1), mRNA (low serum, on MATRIGEL): −1.315 | Intensity (log): Homo sapiens cell adhesion molecule with homology to L1CAM (close homologue of L1) (CHL1), mRNA (low serum, on MATRIGEL): −0.5412 | Intensity (log): Homo sapiens chromosome 19, cosmid R31181 (low serum, on MATRIGEL): −0.2589 | Intensity (log): Homo sapiens clone 23736 mRNA sequence (low serum, on MATRIGEL): −0.04718 | Intensity (log): Homo sapiens cryptic mRNA, complete cds (low serum, on MATRIGEL): 0.1049 | Intensity (log): Homo sapiens cystatin S (CST4), mRNA (low serum, on MATRIGEL): 0.9245 | Intensity (log): Homo sapiens cystatin SA (CST2), mRNA (low serum, on MATRIGEL): −0.1022 | Intensity (log): Homo sapiens cystatin SN (CST1), mRNA (low serum, on MATRIGEL): 0.07293 | Intensity (log): Homo sapiens cytidine deaminase (CDA), mRNA (low serum, on MATRIGEL): −3.891 | Intensity (log): Homo sapiens dual specificity phosphatase 4 (DUSP4), mRNA (low serum, on MATRIGEL): 0.9539 | Intensity (log): Homo sapiens fibroblast growth factor 8 (androgen-induced) (FGF8), mRNA (low serum, on MATRIGEL): −4.328 | Intensity (log): Homo sapiens fibroblast growth factor 17 (FGF17), mRNA (low serum, on MATRIGEL): −0.8946 | Intensity (log): Homo sapiens frizzled-related protein (FRZB), mRNA (low serum, on MATRIGEL): 0.565 | Intensity (log): Homo sapiens gastrin-releasing peptide (GRP), mRNA (low serum, on MATRIGEL): −2.741 | Intensity (log): Homo sapiens glycophorin E (GYPE), mRNA (low serum, on MATRIGEL): −2.016 | Intensity (log): Homo sapiens glycophorin Erik STA (GPErik) gene complete cds (low serum, on MATRIGEL): −1.194 | Intensity (log): Homo sapiens growth differentiation factor 3 (GDF3), mRNA (low serum, on MATRIGEL): 1.673 | Intensity (log): Homo sapiens haptoglobin (HP), mRNA (low serum, on MATRIGEL): −1.101 | Intensity (log): Homo sapiens haptoglobin-related protein (HPR), mRNA (low serum, on MATRIGEL): −2.6068 | Intensity (log): Homo sapiens homeobox protein goosecoid mRNA, complete cds (low serum, on MATRIGEL): −4.42 | Intensity (log): Homo sapiens hypothetical protein FLJ10718 (FLJ10718), mRNA (low serum, on MATRIGEL): 2.605 | Intensity (log): Homo sapiens hypothetical protein FLJ10970 (FLJ10970), mRNA (low serum, on MATRIGEL): −0.432 | Intensity (log): Homo sapiens hypothetical protein FLJ11316 (FLJ11316), mRNA (low serum, on MATRIGEL): −0.9047 | Intensity (log): Homo sapiens hypothetical protein FLJ22252 similar to SRY-box containing gene 17 (FLJ22252), mRNA (low serum, on MATRIGEL): 1.368 | Intensity (log): Homo sapiens lumican (LUM), mRNA (low serum, on MATRIGEL): −4.057 | Intensity (log): Homo sapiens mRNA for GATA-6, complete cds (low serum, on MATRIGEL): 2.219 | Intensity (log): Homo sapiens mRNA for KIAA1409 protein, partial cds (low serum, on MATRIGEL): 0.3683 | Intensity (log): Homo sapiens mRNA; cDNA DKFZp434D0818 (from clone DKFZp434D0818) (low serum, on MATRIGEL): −2.634 | Intensity (log): Homo sapiens mRNA; cDNA DKFZp586J0624 (from clone DKFZp586J0624); complete cds (low serum, on MATRIGEL): −0.8352 | Intensity (log): Homo sapiens presenilin stabilization factor b (PSF) mRNA, complete cds; alternatively spliced (low serum, on MATRIGEL): −0.8617 | Intensity (log): Homo sapiens reserved (KCNK12), mRNA (low serum, on MATRIGEL): −0.4687 | Intensity (log): Homo sapiens retinoid X receptor, gamma (RXRG), mRNA (low serum, on MATRIGEL): −2.375 | Intensity (log): Homo sapiens sema domain, immunoglobulin domain (Ig), short basic domain, secreted, (semaphorin) 3E (SEMA3E), mRNA (low serum, on MATRIGEL): −0.786 | Intensity (log): Homo sapiens sema domain, seven thrombospondin repeats (type 1 and type 1-like), transmembrane domain (TM) and short cytoplasmic domain, (semaphorin) 5A (SEMA5A), mRNA (low serum, on MATRIGEL): −1.533 | Intensity (log): Homo sapiens solute carrier family 21 (prostaglandin transporter), member 2 (SLC21A2), mRNA (low serum, on MATRIGEL): 0.7114 | Intensity (log): Homo sapiens type VI collagen alpha 2 chain precursor (COL6A2) mRNA, complete cds, alternatively spliced (low serum, on MATRIGEL): 1.7011 | Intensity (log): Homo sapiens, alpha-1 (VI) collagen (low serum, on MATRIGEL): −3.662 | Intensity (log): Homo sapiens, clone MGC: 4655, mRNA, complete cds (low serum, on MATRIGEL): 2.3772 | Intensity (log): Human (clone 8B1) Br-cadherin mRNA, complete cds (low serum, on MATRIGEL): −2.179 | Intensity (log): Human (clone HSY3RR) neuropeptide Y receptor (NPYR) mRNA, complete cds (low serum, on MATRIGEL): 1.775 | Intensity (log): Human DNA sequence from clone RP1-181C24 on chromosome 6p11.1-12.2. Contains the 3 end of the BMP5 gene for bone morphogenetic protein 5, ESTs, STSs and GSSs (low serum, on MATRIGEL): −3.723 | Intensity (log): Human Fritz mRNA, complete cds (low serum, on MATRIGEL): 0.4366 | Intensity (log): Human dipeptidyl peptidase IV (CD26) mRNA, complete cds (low serum, on MATRIGEL): −3.611 | Intensity (log): Human glycophorin HeP2 mRNA, partial cds (low serum, on MATRIGEL): −0.8435 | Intensity (log): Human link protein mRNA, complete cds (low serum, on MATRIGEL): −1.94 | Intensity (log): Human mRNA for alpha-1 type II collagen (low serum, on MATRIGEL): −2.8736 | Intensity (log): Human mRNA for apolipoprotein AI (apo AI) (low serum, on MATRIGEL): 0.2151 | Intensity (log): Human prostatic secretory protein 57 mRNA, complete cds (low serum, on MATRIGEL): −3.013 | Intensity (log): KIAA1462 protein (low serum, on MATRIGEL): −3.846 | Intensity (log): MCP-1 = monocyte chemotactic protein (human, aortic endothelial cells, mRNA, 661 nt) (low serum, on MATRIGEL): −2.276 | Intensity (log): Rho GDP dissociation inhibitor (GDI) alpha (low serum, on MATRIGEL): −1.544 | Intensity (log): WAS protein family, member 2 (low serum, on MATRIGEL): −2.187 | Intensity (log): collagen, type IX, alpha 2 (low serum, on MATRIGEL): 1.27 | Intensity (log): collagen, type VI, alpha 1 (low serum, on MATRIGEL): −1.418 | Intensity (log): hepatocyte nuclear factor 4, alpha (low serum, on MATRIGEL): −4.266 | Intensity (log): homeo box HB9 (low serum, on MATRIGEL): −1.656 | Intensity (log): hypothetical protein FLJ21032 (low serum, on MATRIGEL): 0.3557 | Intensity (log): hypothetical protein FLJ23091 (low serum, on MATRIGEL): 0.3234 | Intensity (log): microfibrillar-associated protein 4 (low serum, on MATRIGEL): 0.06379 | Intensity (log): myristoylated alanine-rich protein kinase C substrate (MARCKS, 80K-L) (low serum, on MATRIGEL): −0.7172
